From patent publication US8987254B2, “Tetrahydropyrrolothiazine compounds” (Eli Lilly and Company, priority 2013, dated 2015) come the findings set out here.

pIC50: −log10 of the molar value. Structures can show the parent of a compound that is named as a salt. Where two headings read alike, the source gives them in different places.

For data set [1], the target named is human BACE1(1-460):Fc (Homo sapiens (Human), UniProt P56817). The data set is described as follows: BACE1 FRET Assay. The data set is classed as biochemical. Particulars: purified recombinant huBACE1:Fc, FRET substrate, pH 4.6; Mean ± SEM. The method, then:
(§1) For in vitro enzymatic and cellular assays, test compounds are prepared in DMSO to make up a 10 mM stock solution. The stock solution is serially diluted in DMSO to obtain a ten-point dilution curve with final compound concentrations ranging from […] to 0.05 nM in a 96-well round-bottom plate before conducting the in vitro enzymatic and whole cell assays.
Human BACE1 (accession number: AF190725) is cloned from total brain cDNA by RT-PCR. The nucleotide sequences corresponding to amino acid sequences #1 to 460 are inserted into the cDNA encoding human IgG1 (Fc) polypeptide (Vassar et al. 1999). This fusion protein of BACE1(1-460) and human Fc, named huBACE1:Fc, is constructed into the pJB02 vector. Human BACE1(1-460):Fc (huBACE1:Fc) is transiently expressed in HEK293 cells. 250 μg cDNA of each construct is mixed with Fugene 6 and added to 1 liter HEK293 cells. Four days after the transfection, conditioned media are harvested for purification.
huBACE1:Fc is purified by Protein A chromatography. The enzyme is stored at −80° C. in small aliquots.
Serial dilutions of test compounds are prepared as described above. Compounds are further diluted 20× in KH2PO4 buffer. […] The content is mixed well on a plate shaker for 10 minutes. Fifteen μL of two hundred pM human BACE1(1-460):Fc (See Vasser, et al., Science, 286, 735-741 (1999)) in the KH2PO4 buffer is added to the plate containing substrate and test compounds to initiate the reaction. The RFU of the mixture at time 0 is recorded at excitation wavelength 355 nm and emission wavelength 460 nm, after brief mixing on a plate shaker. The reaction plate is covered with aluminum foil and kept in a dark humidified oven at room temperature for 16 to 24 h. The RFU at the end of incubation is recorded with the same excitation and emission settings used at time 0. The difference of the RFU at time 0 and the end of incubation is representative of the activity of BACE1 under the compound treatment. RFU differences are plotted versus inhibitor concentration and a curve is fitted with a four-parameter logistic equation to obtain the EC50 and IC50 values. (See Sinha, et al., Nature, 402, 537-540 […]).

Data set [2] deals with HEK293Swe cells. Description: HEK293Swe Whole Cell Assay (Abeta ELISA). Particulars: Homo sapiens. It is filed as cell-based. The protocol: as §1
In vitro Abeta reduction assays have been described in the literature (See Dovey, et al., Journal of Neurochemistry, 76, 173-181 (2001); Seubert, et al., Nature, 361, 260 (1993); and Johnson-Wood, et al., Proc. Natl. Acad. Sci. USA, 94, 1550-1555 (1997)).
At the end of the incubation, conditioned media are analyzed for evidence of beta-secretase activity, for example, by analysis of Abeta peptides. Total Abeta peptides (Abeta 1-x) are measured by a sandwich ELISA, using monoclonal 266 as a capture antibody and biotinylated 3D6 as reporting antibody. Alternatively, Abeta 1-40 and Abeta 1-42 peptides are measured by a sandwich ELISA, using monoclonal 2G3 as a capture antibody for Abeta 1-40, and monoclonal 21F12 as a capture antibody for Abeta 1-42. Both Abeta 1-40 and Abeta 1-42 ELISAs use biotinylated 3D6 as the reporting antibody. The concentration of Abeta released in the conditioned media following the compound treatment corresponds to the activity of BACE1 under such conditions. The 10-point inhibition curve is plotted and fitted with the four-parameter logistic equation to obtain the EC50 and IC50 values for the Abeta-lowering effect.

Data set [3] deals with primary cortical neurons from PDAPP transgenic embryonic mice. The data set is described as follows: PDAPP Primary Neuronal Assay (Abeta ELISA). It is filed as cell-based. Particulars: Mus musculus, Primary cortical neuron, 24 h. The protocol:
as §1
A confirmatory whole cell assay is also run in primary neuronal cultures generated from PDAPP transgenic embryonic mice. Primary cortical neurons are prepared from Embryonic Day 16 PDAPP embryos and cultured in 96 well plates (15×10^4 cells/well in DMEM/F12 (1:1) plus 10% FBS). After 2 days in vitro, culture media is replaced with serum free DMEM/F12 (1:1) containing B27 supplement and 2 μM (final) of Ara-C (Sigma, C1768). At day 5 in vitro, neurons are incubated at 37° C. for 24 h in the presence/absence of inhibitors (diluted in DMSO) at the desired concentration. At the end of the incubation, conditioned media are analyzed for evidence of beta-secretase activity, for example, by analysis of Abeta peptides. Total Abeta peptides (Abeta 1-x) are measured by a sandwich ELISA, using monoclonal 266 as a capture antibody and biotinylated 3D6 as reporting antibody. Alternatively, Abeta 1-40 and Abeta 1-42 peptides are measured by a sandwich ELISA, using monoclonal 2G3 as a capture antibody for Abeta 1-40, and monoclonal 21F12 as a capture antibody for Abeta 1-42. Both Abeta 1-40 and Abeta 1-42 ELISAs use biotinylated 3D6 as the reporting antibody. The concentration of Abeta released in the conditioned media following the compound treatment corresponds to the activity of BACE1 under such conditions. The 10-point inhibition curve is plotted and fitted with the four-parameter logistic equation to obtain the EC50 and IC50 values for the Abeta-lowering effect.

Data set [4] relates to PDAPP mice. Description: In Vivo Inhibition of Beta-Secretase (brain Abeta 1-x reduction). Further details: species or system mouse. Particulars: for Abeta 1-x peptide levels reduced in brain cortex / Abeta 1-x peptide levels reduced in brain hippocampus: 3 hours after administration, compared to vehicle-treated mice. The source says: Several animal models, including mouse, guinea pig, dog, and monkey, may be used to screen for inhibition of beta-secretase activity in vivo following compound treatment. Animals used in this invention can be wild type, transgenic, or gene knockout animals. For example, the PDAPP mouse model, prepared as described in Games et al., Nature 373, 523-527 (1995), and other non-transgenic or gene knockout animals are useful to analyze in vivo inhibition of Abeta and sAPPbeta production in the presence of inhibitory compounds. Generally, 2 to 12 month old PDAPP mice, gene knockout mice or non-transgenic animals are administered compound formulated in vehicles, such as corn oil, cyclodextran, phosphate buffers, PHARMASOLVE®, or other suitable vehicles. One to twenty-four hours following the administration of compound, animals are sacrificed, and brains as well as cerebrospinal fluid and plasma are removed for analysis of Abetas, C99, and sAPP fragments. (See May, et al., Journal of Neuroscience, 31, 16507-16516 (2011)).
For standard in vivo pharmacology studies, animals are dosed with various concentrations of compound and compared to a vehicle-treated control group dosed at the same time. For some time course studies, brain tissue, plasma, or cerebrospinal fluid is obtained from selected animals, beginning at time 0 to establish a baseline. Compound or appropriate vehicle is administered to other groups and sacrificed at various times after dosing. Brain tissue, plasma, or cerebrospinal fluid is obtained from selected animals and analyzed for the presence of APP cleavage products, including Abeta peptides, sAPPbeta, and other APP fragments, for example, by specific sandwich ELISA assays. At the end of the test period, animals are sacrificed and brain tissues, plasma, or cerebrospinal fluid are analyzed for the presence of Abeta peptides, C99, and sAPPbeta, as appropriate. Brain tissues of APP transgenic animals may also be analyzed for the amount of beta-amyloid plaques following compound treatment. “Abeta 1-x peptide” as used herein refers to the sum of Abeta species that begin with residue 1 and ending with a C-terminus greater than residue 28. This detects the majority of Abeta species and is often called “total Abeta”.

The mark [5] stands for this setting: HEK293, Abeta 1-40 in conditioned media, read-out: HEK 293 Swe A-beta (1-40) ELISA IC50.
[6] abbreviates: HEK293, Abeta 1-42 in conditioned media, read-out: HEK 293 Swe A-beta (1-42) ELISA IC50.
Setting [7] is: Abeta 1-40, Mean ± SEM, read-out: PDAPP Neuron A-beta (1-40) ELISA IC50.
[8] abbreviates: Abeta 1-42, Mean ± SEM, read-out: PDAPP Neuron A-beta (1-42) ELISA IC50.

Chain of human BACE1(1-460):Fc (P56817 22-460): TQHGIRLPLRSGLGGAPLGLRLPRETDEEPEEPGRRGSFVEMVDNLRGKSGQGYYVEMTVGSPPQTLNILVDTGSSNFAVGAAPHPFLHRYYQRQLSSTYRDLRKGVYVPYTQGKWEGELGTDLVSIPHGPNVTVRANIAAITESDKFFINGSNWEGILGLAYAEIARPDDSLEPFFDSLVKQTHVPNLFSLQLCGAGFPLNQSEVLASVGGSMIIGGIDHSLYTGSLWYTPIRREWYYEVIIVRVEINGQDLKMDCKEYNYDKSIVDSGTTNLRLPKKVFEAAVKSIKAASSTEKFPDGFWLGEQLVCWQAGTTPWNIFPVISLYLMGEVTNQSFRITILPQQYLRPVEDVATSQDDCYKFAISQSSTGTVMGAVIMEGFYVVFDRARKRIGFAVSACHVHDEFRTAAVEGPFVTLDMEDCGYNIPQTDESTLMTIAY

With `N#Cc1ccc(C(=O)Nc2cccc([C@]34CN(c5ncc(F)cn5)C[C@H]3CSC(N)=N4)c2)nc1` [Example 5, N-[3-[(4aR,7aS)-2-Amino-6-(5-fluoropyrimidin-2-yl)-4,4a,5,7-tetrahydropyrrolo[3,4-d][1,3]thiazin-7a-yl]phenyl]-5-cyano-pyridine-2-carboxamide hydrochloride], the negative-log IC50 (pIC50) is 9.35 in data set [1]; 10.05 in data set [2] (setting [5]); 10.11 in data set [2] (setting [6]); 9.88 in data set [3] (setting [7]); 10.09 in data set [3] (setting [8]).
The matching figures for `COc1cnc(C(=O)Nc2cccc([C@]34CN(c5ncc(F)cn5)C[C@H]3CSC(N)=N4)c2)cn1` [Example 2, N-{3-[(4aR,7aS)-2-Amino-6-(5-fluoropyrimidin-2-yl)-4a,5,6,7-tetrahydropyrrolo[3,4-d][1,3]thiazin-7a(4H)-yl]phenyl}-5-methoxypyrazine-2-carboxamide hydrochloride]: 9.32, 9.49, 9.54, 9.61 and 8.91.
Take `COc1cnc(C(=O)Nc2ccc(F)c([C@]34CN(c5ncc(F)cn5)C[C@H]3CSC(N)=N4)c2)cn1` [Example 4, N-[3-[(4aR,7aS)-2-Amino-6-(5-fluoropyrimidin-2-yl)-4,4a,5,7-tetrahydropyrrolo[3,4-d][1,3]thiazin-7a-yl]-4-fluoro-phenyl]-5-methoxy-pyrazine-2-carboxamide hydrochloride]: the pIC50 was 9.87 in data set [3] (setting [7]) and 9.88 in data set [3] (setting [8]).
In the case of `NC1=N[C@@]2(c3cccc(NC(=O)c4ncc(F)cc4F)c3)CN(c3ncc(F)cn3)C[C@H]2CS1` [Example 6, N-[3-[(4aR,7aS)-2-Amino-6-(5-fluoropyrimidin-2-yl)-4,4a,5,7-tetrahydropyrrolo[3,4-d][1,3]thiazin-7a-yl]phenyl]-3,5-difluoro-pyridine-2-carboxamide hydrochloride], the pIC50 in data set [1] is 9.13; in data set [2] (setting [5]), 9.66; in data set [2] (setting [6]), 9.68; in data set [3] (setting [7]) it was 9.55; in data set [3] (setting [8]), 9.51.
As for `N#Cc1ccc(C(=O)Nc2ccc(F)c([C@]34CN(c5ncc(F)cn5)C[C@H]3CSC(N)=N4)c2)nc1` [Example 7, N-[3-[(4aR,7aS)-2-Amino-6-(5-fluoropyrimidin-2-yl)-4,4a,5,7-tetrahydropyrrolo[3,4-d][1,3]thiazin-7a-yl]-4-fluoro-phenyl]-5-cyano-pyridine-2-carboxamide hydrochloride], the pIC50 is 9.45 in data set [1], 10.06 in data set [3] (setting [7]) and 10.19 in data set [3] (setting [8]).
With `Cl.NC1=N[C@@]2(c3cc(NC(=O)c4ccc(F)cn4)ccc3F)CN(c3ncc(F)cn3)C[C@H]2CS1` [Example 3, N-[3-[(4aR,7aS)-2-Amino-6-(5-fluoropyrimidin-2-yl)-4,4a,5,7-tetrahydropyrrolo[3,4-d][1,3]thiazin-7a-yl]-4-fluoro-phenyl]-5-fluoro-pyridine-2-carboxamide hydrochloride], the CNS penetration entry in data set [4] was “demonstrate CNS penetration”. The “Abeta 1-x peptide levels reduced in brain cortex” value in data set [4] (1 mg/kg oral dose) is given as “approximately 34%”; in data set [4] (3 mg/kg oral dose), about 53%. For the same molecule, the “Abeta 1-x peptide levels reduced in brain hippocampus” value in data set [4] (1 mg/kg oral dose) is “approximately 38%”; in data set [4] (3 mg/kg oral dose), about 50%. The pIC50 was 8.90 in data set [2] (setting [5]), 9.52 in data set [2] (setting [6]), 9.51 in data set [3] (setting [7]) and 9.74 in data set [3] (setting [8]).
Regarding `NC1=N[C@@]2(c3cc(NC(=O)c4ncc(F)cc4F)ccc3F)CN(c3ncc(F)cn3)C[C@H]2CS1` [Example 8, N-[3-[(4aR,7aS)-2-Amino-6-(5-fluoropyrimidin-2-yl)-4,4a,5,7-tetrahydropyrrolo[3,4-d][1,3]thiazin-7a-yl]-4-fluoro-phenyl]-3,5-difluoro-pyridine-2-carboxamide hydrochloride], the pIC50 was 9.55 in data set [3] (setting [7]) and 9.54 in data set [3] (setting [8]).
